Earlier results on one compound are cited in patent US7094785B1, “Method of treating polycythemia vera” (Cornell Research Foundation, Inc., priority 2002, dated 2006).

Counter-ions that a name gives are not always drawn.

This series relates to essential thrombocythemia or myelofibrosis.

In the case of `Cc1ccc(NC(=O)c2ccc(CN3CCN(C)CC3)cc2)cc1Nc1nccc(-c2cccnc2)n1` [imatinib mesylate, N-{5-[4-(4-methyl-piperazino-methyl)-benzoylamido]-2-methylphenyl}-4-(3-pyridyl)-2-pyrimidine-amine], the “effectiveness in other myeloproliferative disorders” value is on record as “not effective”.
